# Reference: publication PMC9325934, “Preliminary mechanistic insights of a brain-penetrant microtubule imaging PET ligand in a tau-knockout mouse model” (EJNMMI Research, 2022)
# pIC50: −log10 of the molar value. Where a name gives a salt, the structure may show the parent alone.
# What was measured:
# [1] = test system: stabilized/bound and destabilized/free tubulins of SH-SY5Y cells; experiment: Cytoskeleton kit-based tubulin assay with [11C]MPC-6827 (free vs bound tubulin fractions); type: cell-based, human; details: for increase of [11C]MPC-6827 radioactivity in bound fractions / increase of [11C]MPC-6827 radioactivity in free tubulin fractions / decrease of [11C]MPC-6827 radioactivity in bound tubulin fractions / decrease of [11C]MPC-6827 radioactivity in free tubulin fractions: 1.0 µM agent 3 h, vs untreated fractions
# Experimental: To further investigate the tubulin selectivity of [^11C]MPC-6827 in SH-SY5Y cells, tubulin assay was performed using the commercially available kit-based assay (Cytoskeleton Inc, USA). Briefly, SH-SY5Y cells (7 × 10^6 cells/well) were pretreated with 1.0 µM of same MT stabilizing (EpoD, paclitaxel) and destabilizing agents (mertasine, vinblastine) for 3 h (n = 3/group). […] Samples were loaded on to ultra-centrifuge following the kit-based assay parameters to separate stabilized/bound and destabilized/free tubulins. Stabilized tubulins from low-speed centrifugation (1000×g for 5 min at 37 °C) and destabilized tubulins from high speed centrifugation (100,000×g for 20 min at 37 °C) were collected separately and their associated radioactivity was measured using a γ counter (Perkin Elmer).
# SH-SY5Y cells = experiment: In vitro [11C]MPC-6827 cell uptake assay with MT stabilizing/destabilizing agents and self-blocking
# Experimental: Cell-binding assays in vitro were performed in SH-SY5Y cells with [^11C]MPC-6827 following our published protocols [20, 21]. […] They (0.5 × 10^6 cells/well) were treated with 1.0 µM of (a) stabilizing agents that increase MT polymerizations (paclitaxel, EpoD) [1, 25] or destabilizing agents increasing free tubulin content (vinblastine, mertasine) [26, 27] and 3 h later, [^11C]MPC-6827 (0.074 MBq/well) was added and incubated for 30 min at RT (n = 6/group). […] All the cells were washed with PBS and lysed with 1 N NaOH. Finally, the lysate from each well was γ-counted (PerkinElmer, Waltham, MA, USA) and counts-per-minute (cpm) values were normalized to the amount of radioactivity added to each well. Protein concentration was estimated in a subgroup of cells (n = 3) using the established Pierce BCA Protein Assay Kit from ThermoFisher [28, 29]. Cpm values were then matched to protein concentration per well, and the data expressed as %ID/mg of protein in each well.
# [2] = [11C]MPC-6827 brain microPET/CT at baseline and after EpoD treatment; type: in vivo; details: female Balb/C mice, EpoD 3.0 mg/kg intraperitoneal, 3 days acute treatment
# Experimental: To validate the in vitro MT-stabilization cell uptake results, normal Balb/C mice (n = 6, 6 mo old) were treated with epothilone D (EpoD), a brain-penetrant, MT-stabilizing drug commonly used in tauopathies. [^11C]MPC-6827 brain PET/CT imaging was performed at baseline and after 3 days of acute treatment of EpoD treatment (3.0 mg/kg intraperitoneal injection). Whole-brain SUVmax was calculated and compared between the baseline and post-drug treatment scans.
# β-tubulin = test system: β-tubulin; set-up: method as in PMID 17575155; details: high-affinity, selective β-tubulin binding MT agent; cited from earlier work
# [3] = In vitro autoradiography of [11C]MPC-6827 on brain sections; type: binding, mice
# Experimental: Autoradiography studies in vitro were performed on postmortem frozen brain sections from tau KO and control mice (n = 6/group) following published protocols. Briefly, the sagittal sections were mount on a glass slides (Super frost plus slides, Fisher Scientific, Waltham, MA), air-dried for 30 min and incubated in PBS (pH 7.4) for 10 min to remove any endogenous binding. Additionally, a sub-section of tau KO brains (n = 4) were self-blocked with non-radioactive MPC-6827 (10 µM) 1 h prior to radiotracer treatment. The slides were air-dried and ~ 0.5 MBq of [^11C]MPC-6827 in PBS was added to each slide and incubated for 30 min. The slides were then washed with PBS (3×) and water (1×) at 4 °C and quickly air-dried. Slides containing the brain tissues were exposed to radioluminographic imaging cassette BAS IP SR 2025 (GE Healthcare) for 12 h at − 20 °C and scanned with a GE Amersham Typhoon scanner (25 µm pixel size). Autoradiographs were analyzed using ImageQuant TL 8.2 and ROI were manually drawn (see Additional file 1: 3), and specific binding in each ROI was calculated and expressed as photo-stimulated luminescence signals per square millimeter (PSL/mm^2).
# [4] = set-up: method as in earlier work; details: mice, rats, and dogs; cited from earlier work
# [5] = Post-PET ex vivo biodistribution of [11C]MPC-6827 in tau KO and WT mice
# Experimental: Post-PET radiotracer tissue biodistribution studies were performed with [^11C]MPC-6827 in the KO and WT mice (n = 4/group). After dynamic brain imaging from 0 to 60 min, mice were euthanized, and samples of brain, blood, heart, lung, liver, spleen, pancreas, kidney, and muscle were harvested, weighed, and γ-counted using a Wallac Gamma Counter (PerkinElmer) with a standard dilution of the injectate. […]
# [6] = [11C]MPC-6827 microPET/CT brain imaging in tau KO and WT mice; type: in vivo
# Experimental: Small animal microPET/CT imaging was performed in anesthetized tau-KO and WT mice (n = 8/group) at 6 months of age. All mice received a bolus injection of [^11C]MPC-6827 (18.1 ± 0.01 MBq) via the tail vein. For the microPET/CT scans, the head/brain area was centered in the field of view, and the list-mode data from the emission scans were reframed into a 0-60 min dynamic binning sequence. Time-activity curves (TACs) were obtained, and radioactive uptake was expressed as standardized uptake values (SUVs) using the PMOD analysis software. Regions of interest (ROIs) were drawn for the whole brain and commonly AD-affected regions including cortex, striatum, hippocampus, and cerebellum, using Π-pmod Atlas software.
# [7] = 1.0 µM agent for 3 h, then tracer 30 min at RT, vs untreated cells
smiles,measurement,setting,value
CC[C@]1(O)C[C@@H]2CN(CCc3c([nH]c4ccccc34)[C@@](C(=O)OC)(c3cc4c(cc3OC)N(C)[C@H]3[C@@](O)(C(=O)OC)[C@H](OC(C)=O)[C@]5(CC)C=CCN6CC[C@]43[C@@H]65)C2)C1 [vinblastine],increase of [11C]MPC-6827 radioactivity in bound fractions,[1],84 (± 4) %
same,increase of [11C]MPC-6827 radioactivity in free tubulin fractions,[1],~ 43 (± 1) %
same,increase of [11C]MPC-6827 radioactive uptake,SH-SY5Y cells; [7],~ 78 (± 2) %
"C/C1=C/C[C@@H](/C(C)=C/c2csc(C)n2)OC(=O)C[C@H](O)C(C)(C)C(=O)[C@H](C)[C@@H](O)[C@@H](C)CCC1 [EpoD, Epothilone d]",lower [11C]MPC-6827 brain uptake (whole-brain SUVmax) with EpoD treatment compared to baseline,[2],~ 23 (± 1) %
same,decrease of [11C]MPC-6827 radioactivity in bound tubulin fractions,[1],~ 62 (± 6) %
same,decrease of [11C]MPC-6827 radioactivity in free tubulin fractions,[1],~ 44 (± 1) %
same,decrease of [11C]MPC-6827 radioactive uptake,SH-SY5Y cells; [7],~ 44 (± 2) %
"COc1ccc(N(C)c2nc(C)nc3ccccc23)cc1 [MPC-6827, MPC-6827 hydrochloride]",pIC50,β-tubulin,8.82
same,lower radiotracer uptake on blocking compared to untreated tau KO samples,"[3]; non-radioactive MPC-6827 10 µM 1 h prior to radiotracer, whole brain, cortex, hippocampus, mid-brain regions of tau KO sections",63–70%
same,lower [11C]MPC-6827 radioactive uptake in self-blocking assay,"SH-SY5Y cells; non-radioactive MPC-6827 1.0 µM 60 min before tracer, 30 min incubation",~ 70 (± 1) %
same,brain-to-plasma ratios,[4],14–30 times
Cc1nc(N(C)c2ccc(O[11CH3])cc2)c2ccccc2n1 [[^11C]MPC-6827],increased radioactivity in destabilized/free tubulin fractions compared to bound fractions,[1]; tracer 30 min at RT,> 90 (± 4) %
same,"higher radioactivity in tau KO brains compared to age-matched controls, cortex","[3]; autoradiography in vitro, cortex",~ 38[± 2] %
same,"higher radioactivity in tau KO brains compared to age-matched controls, hippocampus","[3]; autoradiography in vitro, hippocampus",~ 33[± 3] %
same,"higher radioactivity in tau KO brains compared to age-matched controls, midbrain regions","[3]; autoradiography in vitro, midbrain regions",30[± 3] %
same,"higher radioactivity in tau KO brains compared to age-matched controls, whole brain","[3]; autoradiography in vitro, whole brain",~ 46[± 4] %
same,brain uptake,"[5]; WT controls, brain",1.03 ± 0.29 %ID/g
same,higher brain uptake in tau KO mice compared to WT controls,[5]; brain,~ 41%
same,uptake in cortical regions,"[5]; controls (WT), cortical regions",0.69 ± 0.07 %ID/g
same,uptake in cortical regions of tau KO brains higher than in controls,[5]; cortical regions,37%
same,brain uptake,"[5]; tau KO mice, brain",1.76 ± 0.31 %ID/g
same,uptake in cortical regions,"[5]; tau KO mice, cortical regions",1.11 ± 0.03 %ID/g
same,whole-brain SUVmax,"[6]; WT mice, 0-60 min microPET/CT, IV",1.74
same,time of peak brain radioactivity (TAC),[6]; both genotypes (tau KO and WT),around 4 min
same,whole-brain SUVmax,"[6]; tau KO mice, 0-60 min microPET/CT, IV",2.33
same,whole-brain SUVmax in tau KO higher than in WT controls,"[6]; tau KO vs WT mice, 0-60 min microPET/CT, IV",33 (± 2) %
COc1cc2cc(c1Cl)N(C)C(=O)C[C@H](OC(=O)[C@H](C)N(C)C(=O)CCS)[C@]1(C)O[C@H]1[C@H](C)[C@@H]1C[C@@](O)(NC(=O)O1)[C@H](OC)/C=C/C=C(\C)C2 [mertasine],increase of [11C]MPC-6827 radioactivity in bound fractions,[1],~ 66 (± 2) %
same,increase of [11C]MPC-6827 radioactivity in free tubulin fractions,[1],~ 39 (± 3) %
same,increase of [11C]MPC-6827 radioactive uptake,SH-SY5Y cells; [7],63 (± 2) %
CC(=O)O[C@H]1C(=O)[C@@]2(C)[C@H]([C@H](OC(=O)c3ccccc3)[C@]3(O)C[C@H](OC(=O)[C@H](O)[C@@H](NC(=O)c4ccccc4)c4ccccc4)C(C)=C1C3(C)C)[C@]1(OC(C)=O)CO[C@@H]1C[C@@H]2O [paclitaxel],decrease of [11C]MPC-6827 radioactivity in bound tubulin fractions,[1],~ 60 (± 2) %
same,decrease of [11C]MPC-6827 radioactivity in free tubulin fractions,[1],~ 36.8 (± 3) %
